From patent US11051515B2, “3-acyl-benzamides and their use as herbicides” (Bayer Aktiengesellschaft, priority 2017, dated 2021)

Tests used:
[1] = tested on: SETVI; assay: Pre-emergence action against SETVI; type: in vivo, Setaria viridis; details: pre-emergence, dosage 320 g/ha, scored visually after 3 weeks vs untreated controls
Outline: (§1)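 Seeds sown in sandy loam in wood-fiber pots and covered with soil. Greenhouse growth; visual damage scored after 3 weeks versus untreated controls (100% = dead, 0% = like control).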

[2] = tested on: VERPE; assay: Pre-emergence action against VERPE; type: in vivo, Veronica persica; details: Dosage 320 g/ha, pre-emergence
Outline: as §1

[3] = tested on: VIOTR; assay: Pre-emergence action against VIOTR; type: in vivo, Viola tricolor; details: Dosage 320 g/ha, pre-emergence
Outline: as §1

[4] = tested on: AMARE; assay: Pre-emergence action against AMARE; type: in vivo, Amaranthus retroflexus; details: pre-emergence, dosage 320 g/ha, scored visually after 3 weeks vs untreated controls
Outline: as §1

[5] = tested on: STEME; assay: Post-emergence action against STEME; type: in vivo, Stellaria media; details: post-emergence, dosage 80 g/ha
Outline: (§2)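 Weeds grown in sandy loam in greenhouse, treated at one-leaf stage (2–3 weeks after sowing) with WP or EC formulations sprayed as aqueous suspension/emulsion at 600 to […] water with 0.2% wetting agent. Visual rating after about 3 weeks versus untreated controls, as % herbicidal action (100% = plants dead, 0% = like control).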

[6] = tested on: CYPES; assay: Pre-emergence action against CYPES; type: in vivo, Cyperus esculentus; details: pre-emergence, dosage 320 g/ha, scored visually after 3 weeks vs untreated controls
Outline: as §1

[7] = tested on: ABUTH; assay: Pre-emergence action against ABUTH; type: in vivo, Abutilon theophrasti; details: pre-emergence, dosage 320 g/ha, scored visually after 3 weeks vs untreated controls
Outline: as §1

[8] = tested on: MATIN; assay: Pre-emergence action against MATIN; type: in vivo, Matricaria inodora; details: Dosage 320 g/ha, pre-emergence
Outline: as §1

[9] = tested on: LOLRI; assay: Pre-emergence action against LOLRI; type: in vivo, Lolium rigidum; details: dosage 320 g/ha, scored visually after 3 weeks vs untreated controls
From the text: (§3) Seeds of monocotyledonous and dicotyledonous weed plants and crop plants are laid out in sandy loam soil in wood-fiber pots and covered with soil. The compounds of the invention, formulated in the form of wettable powders (WP) or as emulsion concentrates (EC), are then applied to the surface of the covering soil in the form of an aqueous suspension or emulsion at a water application rate equating to […], with addition of 0.2% wetting agent. After the treatment, the pots are placed in a greenhouse and kept under good growth conditions for the trial plants. The damage to the test plants is scored visually after a test period of 3 weeks by comparison with untreated controls (herbicidal activity in percent (%): 100% activity=the plants have died, 0% activity=like control plants).

[10] = tested on: ECHCG; assay: Pre-emergence action against ECHCG; type: in vivo, Echinochloa crus-galli; details: pre-emergence, dosage 320 g/ha, scored visually after 3 weeks vs untreated controls
Outline: as §1

[11] = tested on: STEME; assay: Pre-emergence action against STEME; type: in vivo, Stellaria media; details: Dosage 320 g/ha, pre-emergence
Outline: as §1

[12] = tested on: AVEFA; assay: Post-emergence action against AVEFA; type: in vivo, Avena fatua; details: post-emergence, dosage 80 g/ha, visual assessment about 3 weeks after treatment vs untreated controls
Outline: as §2

[13] = tested on: AMARE; assay: Post-emergence action against AMARE; type: in vivo, Amaranthus retroflexus; details: post-emergence, dosage 80 g/ha, visual assessment about 3 weeks after treatment vs untreated controls
Outline: as §2

[14] = tested on: ECHCG; assay: Post-emergence action against ECHCG; type: in vivo, Echinochloa crus-galli; details: post-emergence, dosage 80 g/ha, visual assessment about 3 weeks after treatment vs untreated controls
Outline: as §2

[15] = tested on: MATIN; assay: Post-emergence action against MATIN; type: in vivo, Matricaria inodora; details: post-emergence, dosage 80 g/ha, visual assessment about 3 weeks after treatment vs untreated controls
Outline: as §2

[16] = tested on: PHBPU; assay: Pre-emergence action against PHBPU; type: in vivo, Pharbitis purpurea; details: Dosage 320 g/ha, pre-emergence
Outline: as §1

[17] = tested on: VIOTR; assay: Post-emergence action against VIOTR; type: in vivo, Viola tricolor; details: post-emergence, dosage 80 g/ha
Outline: as §2

[18] = tested on: POLCO; assay: Post-emergence action against POLCO; type: in vivo, Polygonum convolvulus; details: post-emergence, dosage 80 g/ha
Outline: as §2

[19] = tested on: ABUTH; assay: Post-emergence action against ABUTH; type: in vivo, Abutilon theophrasti; details: post-emergence, dosage 80 g/ha, visual assessment about 3 weeks after treatment vs untreated controls
Outline: as §2

[20] = tested on: AVEFA; assay: Pre-emergence action against AVEFA; type: in vivo, Avena fatua; details: dosage 320 g/ha, scored visually after 3 weeks vs untreated controls
Outline: as §1

[21] = tested on: SETVI; assay: Post-emergence action against SETVI; type: in vivo, Setaria viridis; details: post-emergence, dosage 80 g/ha, visual assessment about 3 weeks after treatment vs untreated controls
Outline: as §2

[22] = tested on: ALOMY; assay: Pre-emergence action against ALOMY; type: in vivo, Alopecurus myosuroides; details: dosage 320 g/ha; pre-emergence; scored visually after 3 weeks vs untreated controls; 100% = plants have died, 0% = like control plants
Outline: as §1

[23] = tested on: CYPES; assay: Post-emergence action against CYPES; type: in vivo, Cyperus esculentus; details: post-emergence, dosage 80 g/ha, visual assessment about 3 weeks after treatment vs untreated controls
Outline: as §2

[24] = tested on: PHBPU; assay: Post-emergence action against PHBPU; type: in vivo, Pharbitis purpurea; details: post-emergence, dosage 80 g/ha
Outline: as §2

[25] = tested on: POLCO; assay: Pre-emergence action against POLCO; type: in vivo, Polygonum convolvulus; details: Dosage 320 g/ha, pre-emergence
Outline: as §1

[26] = tested on: VERPE; assay: Post-emergence action against VERPE; type: in vivo, Veronica persica; details: dosage 80 g/ha
Outline: as §2

[27] = tested on: HORMU; assay: Pre-emergence action against HORMU; type: in vivo, Hordeum murinum; details: Dosage 320 g/ha
From the text: as §3

| SMILES | SETVI (Table B8, pre-emergence herbicidal activity) [1] [%] | Pre-emergence action against VERPE [2] [%] | Post-emergence action against AMARE (herbicidal action in percent) [13] [%] | Post-emergence action against ECHCG (herbicidal action in percent) [14] [%] | Pre-emergence action against VIOTR [3] [%] | Post-emergence action against MATIN (herbicidal action in percent) [15] [%] | Pre-emergence action against AMARE (herbicidal activity) [4] [%] | Post-emergence action against STEME [5] | Pre-emergence action against ABUTH (herbicidal activity) [7] [%] | Pre-emergence action against PHBPU [16] [%] | Post-emergence action against VIOTR [17] | Pre-emergence action against MATIN [8] [%] | Post-emergence action against POLCO [18] | Post-emergence action against ABUTH (herbicidal action in percent) [19] [%] | Pre-emergence action against AVEFA (herbicidal activity) [20] [%] | Post-emergence action against SETVI (herbicidal action in percent) [21] [%] | Pre-emergence action against ECHCG (herbicidal activity) [10] [%] | Pre-emergence action against ALOMY (herbicidal activity in percent) [22] [%] | Post-emergence action against CYPES (herbicidal action in percent) [23] [%] | Post-emergence action against PHBPU [24] | further results |
| --- | --- | --- | --- | --- | --- | --- | --- | --- | --- | --- | --- | --- | --- | --- | --- | --- | --- | --- | --- | --- | --- |
| Cn1nnnc1NC(=O)c1ccc(C(F)(F)F)c(C(=O)C(C)(C)C)c1Cl [1-143] |  |  |  |  |  |  |  |  |  |  |  |  |  |  |  |  |  |  |  |  | pest or weed control at 320 g/ha ([1]; Setaria viridis, 504 h, read-out: SETVI (Table B8, pre-emergence herbicidal activity)): 90%; pest or weed control at 320 g/ha ([2]; Veronica persica, 504 h): 100%; pest or weed control at 320 g/ha ([3]; Viola tricolor, 504 h): 100%; pest or weed control at 320 g/ha ([4]; Amaranthus retroflexus, 504 h, read-out: Pre-emergence action against AMARE (herbicidal activity)): 100%; pest or weed control at 80 g/ha ([5]; Stellaria media, 504 h): 100%; pest or weed control at 320 g/ha ([6]; Cyperus esculentus, 504 h, read-out: Pre-emergence action against CYPES (herbicidal activity)): 90%; pest or weed control at 320 g/ha ([7]; Abutilon theophrasti, 504 h, read-out: Pre-emergence action against ABUTH (herbicidal activity)): 100%; pest or weed control at 320 g/ha ([8]; Tripleurospermum inodorum, 504 h): 100%; pest or weed control at 320 g/ha ([9]; Lolium rigidum, 504 h, read-out: Pre-emergence action against LOLRI (herbicidal activity)): 80%; pest or weed control at 320 g/ha ([10]; Echinochloa crus-galli, 504 h, read-out: Pre-emergence action against ECHCG (herbicidal activity)): 100%; pest or weed control at 320 g/ha ([11]; Stellaria media, 504 h): 100% |
| CCCn1nnnc1NC(=O)c1ccc(C(F)F)c(C(C)=O)c1Cl [3-164] | 100 | 100 | 100 | 100 | 100 | 100 | 100 | 100 | 100 | 90 | 100 | 100 | 80 | 90 | 100 | 100 | 100 | 90 | 90 | 100 | Post-emergence action against AVEFA (herbicidal action in percent) [12]: 80%; Pre-emergence action against CYPES (herbicidal activity) [6]: 100%; Pre-emergence action against LOLRI (herbicidal activity) [9]: 90%; Pre-emergence action against POLCO [25]: 100%; Pre-emergence action against STEME [11]: 100% |
| CCCn1nnnc1NC(=O)c1ccc(C(F)F)c(C(C)=O)c1SC [3-65] | 100 | 100 | 90 | 90 | 100 | 90 | 100 | 100 | 100 | 100 | 100 | 100 | 80 | 100 | 100 | 100 | 100 | 80 | 80 | 90 | Post-emergence action against VERPE [26]: 80; Pre-emergence action against HORMU [27]: 100%; Pre-emergence action against POLCO [25]: 100%; Pre-emergence action against STEME [11]: 100% |
